Experimental data reported in patent US10766903B2 (ALMAC DISCOVERY LIMITED, priority 2016, dated 2020).
Where two headings read alike, the source gives them in different places.

Molecular target: USP7 (Homo sapiens (Human), UniProt Q93009)
Test: USP7 fluorescence polarisation (FP) biochemical assay, ubiquitin-Lys-TAMRA substrate
How it was run: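 Full-length His6-USP7 (2.5 nM) incubated ± inhibitor (8-point dilutions, 200 to 0.1 μM before addition) in 50 mM HEPES pH 7.2, 150 mM NaCl, 0.5 mM EDTA, 5 mM DTT, 0.05% BSA, 0.05% CHAPS. Ubiquitin-Lys-TAMRA cleavage followed by FP (ex 530/em 575 nm) every 15 min for 1.5 h; normalised to no-compound control.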

[1] = Table 4, biochemical assay, average of at least duplicate experiments, read-out: USP7 IC50
[2] = USP7 IC50, Table 4, biochemical assay, average of at least duplicate experiments

USP7, sequence (Q93009 whole entry): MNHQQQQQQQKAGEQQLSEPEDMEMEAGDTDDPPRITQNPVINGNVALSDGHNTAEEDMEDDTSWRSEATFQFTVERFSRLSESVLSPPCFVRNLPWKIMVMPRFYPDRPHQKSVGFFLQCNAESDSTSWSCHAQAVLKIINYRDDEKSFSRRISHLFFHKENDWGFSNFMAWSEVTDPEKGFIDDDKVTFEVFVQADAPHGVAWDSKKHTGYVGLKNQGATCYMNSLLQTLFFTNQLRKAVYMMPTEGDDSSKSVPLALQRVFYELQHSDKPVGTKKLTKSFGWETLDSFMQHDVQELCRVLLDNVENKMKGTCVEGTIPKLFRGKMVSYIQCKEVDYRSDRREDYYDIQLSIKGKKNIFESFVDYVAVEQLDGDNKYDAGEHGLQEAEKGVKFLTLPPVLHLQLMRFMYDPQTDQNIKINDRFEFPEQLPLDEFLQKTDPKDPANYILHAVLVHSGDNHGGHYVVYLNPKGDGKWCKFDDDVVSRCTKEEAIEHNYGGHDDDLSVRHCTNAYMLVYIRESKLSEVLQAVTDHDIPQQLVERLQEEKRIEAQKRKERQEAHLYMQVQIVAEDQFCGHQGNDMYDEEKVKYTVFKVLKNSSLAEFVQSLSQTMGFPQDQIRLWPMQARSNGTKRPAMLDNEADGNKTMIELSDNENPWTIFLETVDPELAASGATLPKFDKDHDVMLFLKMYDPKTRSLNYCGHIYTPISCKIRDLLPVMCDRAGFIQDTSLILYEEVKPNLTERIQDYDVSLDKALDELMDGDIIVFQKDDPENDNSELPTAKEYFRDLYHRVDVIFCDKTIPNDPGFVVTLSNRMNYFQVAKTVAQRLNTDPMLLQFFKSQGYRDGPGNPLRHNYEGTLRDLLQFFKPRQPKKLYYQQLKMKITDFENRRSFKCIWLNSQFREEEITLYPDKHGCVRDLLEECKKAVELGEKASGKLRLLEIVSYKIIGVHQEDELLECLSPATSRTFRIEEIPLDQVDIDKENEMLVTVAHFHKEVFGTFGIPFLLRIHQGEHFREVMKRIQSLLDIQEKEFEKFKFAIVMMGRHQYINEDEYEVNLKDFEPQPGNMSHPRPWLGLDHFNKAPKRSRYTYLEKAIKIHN

C[C@H](CC(=O)N1CCC(O)(Cn2cnc3c(nc(C(F)(F)F)n3C)c2=O)CC1)c1ccccc1 [Example 96, (R)-1-((4-Hydroxy-1-(3-phenylbutanoyl)piperidin-4-yl)methyl)-9-methyl-8-(trifluoromethyl)-1H-purin-6(9H)-one]
IC50 [1]: 1000 to 200000 nM

C[C@H](CC(=O)N1CCC(O)(Cn2cnc(N3CCOCC3)cc2=O)CC1)c1ccccc1 [Example 100, (R)-3-((4-Hydroxy-1-(3-phenylbutanoyl)piperidin-4-yl)methyl)-6-morpholinopyrimidin-4(3H)-one]
IC50 [1]: 1000 to 200000 nM

C[C@H](CC(=O)N1CCC(O)(C(O)c2cnc3ccccn3c2=O)CC1)c1ccccc1 (stereo partly drawn) [Example 101, 3-(Hydroxy(4-hydroxy-1-((R)-3-phenylbutanoyl)piperidin-4-yl)methyl)-4H-pyrido[1,2-a]pyrimidin-4-one]
IC50 [1]: 1000 to 200000 nM

C[C@H](CC(=O)N1CCC(O)(Cn2cnc(-c3cncnc3)cc2=O)CC1)c1ccccc1 [Example 102]
IC50 [1]: 1000 to 200000 nM

C[C@H](CC(=O)N1CCC(O)(Cn2cnc(NCCO)cc2=O)CC1)c1ccccc1 [Example 103, (R)-3-((4-Hydroxy-1-(3-phenylbutanoyl)piperidin-4-yl)methyl)-6-((2-hydroxyethyl)amino)pyrimidin-4(3H)-one]
IC50 [1]: 1000 to 200000 nM

C[C@H](CC(=O)N1CCC(O)(C(O)c2cnc3c(-c4ccccc4)cccn3c2=O)CC1)c1ccccc1 (stereo partly drawn) [Example 105, 3-(Hydroxy(4-hydroxy-1-((R)-3-phenylbutanoyl)piperidin-4-yl)methyl)-9-phenyl-4H-pyrido[1,2-a]pyrimidin-4-one]
IC50 [1]: 1000 to 200000 nM

C[C@H](CC(=O)N1CCC(O)(Cn2cnc3c(-c4cccc(CN5CCOCC5)c4)n(C)nc3c2=O)CC1)c1ccccc1 [Example 108, (R)-6-((4-Hydroxy-1-(3-phenylbutanoyl)piperidin-4-yl)methyl)-2-methyl-3-(3-(morpholinomethyl)phenyl)-2H-pyrazolo[4,3-d]pyrimidin-7(6H)-one]
IC50: 250 to 999 nM

C[C@H](CC(=O)N1CCC(O)(Cn2cnc(N[C@@H]3CCNC3)cc2=O)CC1)c1ccccc1 [Example 110, 3-((4-Hydroxy-1-((R)-3-phenylbutanoyl)piperidin-4-yl)methyl)-6-(((R)-pyrrolidin-3-yl)amino)pyrimidin-4(3H)-one]
IC50 [1]: 250 to 999 nM

Cc1c(NCCN2CCCC2)ncn(CC2(O)CCN(C(=O)C[C@@H](C)c3ccccc3)CC2)c1=O [Example 111, (R)-3-((4-Hydroxy-1-(3-phenylbutanoyl)piperidin-4-yl)methyl)-5-methyl-6-((2-(pyrrolidin-1-yl)ethyl)amino)pyrimidin-4(3H)-one]
IC50 [1]: 1000 to 200000 nM

Cn1nc2c(=O)n(CC3(O)CCN(C(=O)OCc4ccccc4)CC3)cnc2c1-c1ccc(CN)cc1 [Example 112, Benzyl 4-((3-(4-(aminomethyl)phenyl)-2-methyl-7-oxo-2,7-dihydro-6H-pyrazolo[4,3-d]pyrimidin-6-yl)methyl)-4-hydroxypiperidine-1-carboxylate]
IC50 [1]: 1000 to 200000 nM

CC(=O)N(CCN1CCCC1)c1cc(=O)n(CC2(O)CCN(C(=O)C[C@@H](C)c3ccccc3)CC2)cn1 [Example 113, (R)—N-(1-((4-Hydroxy-1-(3-phenylbutanoyl)piperidin-4-yl)methyl)-6-oxo-1,6-dihydropyrimidin-4-yl)-N-(2-(pyrrolidin-1-yl)ethyl)acetamide, Formic Acid]
IC50 [1]: 1000 to 200000 nM

C[C@H](CC(=O)N1CCC(O)(Cn2cnc(NCCN3CCC[C@H]3C)cc2=O)CC1)c1ccccc1 [Example 114, 3-((4-Hydroxy-1-((R)-3-phenylbutanoyl)piperidin-4-yl)methyl)-6-((2-((R)-2-methylpyrrolidin-1-yl)ethyl)amino)pyrimidin-4(3H)-one, Formic Acid]
IC50 [1]: < 250 nM

C[C@H](CC(=O)N1CCC(O)(Cc2cnc(-c3ccccc3)cn2)CC1)c1ccccc1 [Example 115, (R)-1-(4-Hydroxy-4-((5-phenylpyrazin-2-yl)methyl)piperidin-1-yl)-3-phenylbutan-1-one]
IC50 [1]: 1000 to 200000 nM

Cn1nc2c(=O)n(CC3(O)CCN(C(=O)C[C@H](c4ccccc4)C(F)(F)F)CC3)cnc2c1-c1ccc([C@@H](N)C(F)(F)F)cc1 [Example 118, 3-(4-((R)-1-Amino-2,2,2-trifluoroethyl)phenyl)-6-((4-hydroxy-1-((R)-4,4,4-trifluoro-3-phenylbutanoyl)piperidin-4-yl)methyl)-2-methyl-2H-pyrazolo[4,3-d]pyrimidin-7(6H)-one]
IC50 [2]: 250 to 999 nM

Cn1nc2c(=O)n(CC3(O)CCN(C(=O)C[C@H](c4ccccc4)C(F)(F)F)CC3)cnc2c1-c1ccc([C@H](N)C(F)(F)F)cc1 [Example 119, 3-(4-((S)-1-Amino-2,2,2-trifluoroethyl)phenyl)-6-((4-hydroxy-1-((R)-4,4,4-trifluoro-3-phenylbutanoyl)piperidin-4-yl)methyl)-2-methyl-2H-pyrazolo[4,3-d]pyrimidin-7(6H)-one]
IC50 [1]: < 250 nM

CCn1nc2c(=O)n(CC3(O)CCN(C(=O)C[C@H](c4ccccc4)C(F)(F)F)CC3)cnc2c1-c1ccc(CN)cc1 [Example 120]
IC50 [1]: < 250 nM

C[C@H](CC(=O)N1CCC(O)(Cn2cnc(N(CCN3CCCC3)c3ccccc3)cc2=O)CC1)c1ccccc1 [Example 121, (R)-3-((4-Hydroxy-1-(3-phenylbutanoyl)piperidin-4-yl)methyl)-6-(phenyl(2-(pyrrolidin-1-yl)ethyl)amino)pyrimidin-4(3H)-one, Formic Acid]
IC50 [1]: 1000 to 200000 nM

Cn1nc2c(=O)n(CC3(O)CCN(C(=O)C[C@H](c4ccccc4)C(F)(F)F)CC3)cnc2c1-c1ccc([C@H](N)C(F)F)cc1 [Example 122, 3-(4-((S)-1-Amino-2,2-difluoroethyl)phenyl)-6-((4-hydroxy-1-((R)-4,4,4-trifluoro-3-phenylbutanoyl)piperidin-4-yl)methyl)-2-methyl-2H-pyrazolo[4,3-d]pyrimidin-7(6H)-one]
IC50 [1]: < 250 nM

Cn1nc2c(=O)n(CC3(O)CCN(C(=O)C[C@H](c4ccccc4)C(F)(F)F)CC3)cnc2c1-c1ccc(CN)c(C(F)(F)F)c1 [Example 123, (R)-3-(4-(Aminomethyl)-3-(trifluoromethyl)phenyl)-6-((4-hydroxy-1-(4,4,4-trifluoro-3-phenylbutanoyl)piperidin-4-yl)methyl)-2-methyl-2H-pyrazolo[4,3-d]pyrimidin-7(6H)-one]
IC50 [1]: < 250 nM

Cn1nc2c(=O)n(CC3(O)CCN(C(=O)C[C@H](c4ccccc4)C(F)(F)F)CC3)cnc2c1-c1ccc(C2(N)CC2)cc1 [Example 124, (R)-3-(4-(1-Aminocyclopropyl)phenyl)-6-((4-hydroxy-1-(4,4,4-trifluoro-3-phenylbutanoyl)piperidin-4-yl)methyl)-2-methyl-2H-pyrazolo[4,3-d]pyrimidin-7(6H)-one]
IC50 [1]: < 250 nM

Cc1ccc([C@@H](CC(=O)N2CCC(O)(Cn3cnc4c(-c5ccc(CN)cc5)n(C)nc4c3=O)CC2)C(F)(F)F)s1 [Example 125, (S)-3-(4-(Aminomethyl)phenyl)-6-((4-hydroxy-1-(4,4,4-trifluoro-3-(5-methylthiophen-2-yl)butanoyl)piperidin-4-yl)methyl)-2-methyl-2H-pyrazolo[4,3-d]pyrimidin-7(6H)-one]
IC50 [2]: 250 to 999 nM

C[C@H](CC(=O)N1CCC(O)(CN2C(=O)Cc3ccccc32)CC1)c1ccccc1 [Example 126, (R)-1-((4-Hydroxy-1-(3-phenylbutanoyl)piperidin-4-yl)methyl)indolin-2-one]
IC50 [1]: 1000 to 200000 nM

Cn1nc2c(=O)n(CC3(O)CCN(C(=O)CC(C4CC4)C4CC4)CC3)cnc2c1-c1ccc(CN)cc1 [Example 127, 3-(4-(Aminomethyl)phenyl)-6-((1-(3,3-dicyclopropylpropanoyl)-4-hydroxypiperidin-4-yl)methyl)-2-methyl-2H-pyrazolo[4,3-d]pyrimidin-7(6H)-one]
IC50 [1]: < 250 nM

O=C(C[C@H](c1ccccc1)C(F)(F)F)N1CCC(O)(Cn2cnc3c(ncn3-c3ccccc3)c2=O)CC1 [Example 128, (R)-1-((4-Hydroxy-1-(4,4,4-trifluoro-3-phenylbutanoyl)piperidin-4-yl)methyl)-9-phenyl-1H-purin-6(9H)-one]
IC50 [1]: 250 to 999 nM

O=C(C[C@H](c1ccccc1)C(F)F)N1CCC(O)(Cn2cnc3c(ncn3-c3ccccc3)c2=O)CC1 [Example 129, (R)-1-((1-(4,4-Difluoro-3-phenylbutanoyl)-4-hydroxypiperidin-4-yl)methyl)-9-phenyl-1H-purin-6(9H)-one]
IC50 [1]: < 250 nM

CN1CC=C(c2c3ncn(CC4(O)CCN(C(=O)C[C@H](c5ccccc5)C(F)(F)F)CC4)c(=O)c3nn2C)CC1 [Example 130, (R)-6-((4-Hydroxy-1-(4,4,4-trifluoro-3-phenylbutanoyl)piperidin-4-yl)methyl)-2-methyl-3-(1-methyl-1,2,3,6-tetrahydropyridin-4-yl)-2H-pyrazolo[4,3-d]pyrimidin-7(6H)-one]
IC50 [1]: 1000 to 200000 nM

CC(=O)N1CCC(O)(Cn2cnc3c(-c4ccccc4)n(C)nc3c2=O)CC1 [Example 131, 6-((1-Acetyl-4-hydroxypiperidin-4-yl)methyl)-2-methyl-3-phenyl-2H-pyrazolo[4,3-d]pyrimidin-7(6H)-one]
IC50 [1]: 1000 to 200000 nM

CC(=O)N1CCC(O)(Cn2cnc(NCCN3CCCC3)cc2=O)CC1 [Example 132, 3-((1-Acetyl-4-hydroxypiperidin-4-yl)methyl)-6-((2-(pyrrolidin-1-yl)ethyl)amino)pyrimidin-4(3H)-one]
IC50 [1]: 1000 to 200000 nM

O=C(CC(C1CC1)C1CC1)N1CCC(O)(Cn2cnc(NCCN3CCCC3)cc2=O)CC1 [Example 133, 3-((1-(3,3-Dicyclopropylpropanoyl)-4-hydroxypiperidin-4-yl)methyl)-6-((2-(pyrrolidin-1-yl)ethyl)amino)pyrimidin-4(3H)-one]
IC50 [1]: 250 to 999 nM

Cn1nc2c(=O)n(CC3(O)CCN(C(=O)C[C@H](c4ccccc4)C(F)(F)F)CC3)cnc2c1C1=CCCCC1 [Example 134, (R)-3-(Cyclohex-1-en-1-yl)-6-((4-hydroxy-1-(4,4,4-trifluoro-3-phenylbutanoyl)piperidin-4-yl)methyl)-2-methyl-2H-pyrazolo[4,3-d]pyrimidin-7(6H)-one]
IC50 [1]: < 250 nM
